{
  "source": "paper PMC3905461",
  "about": "(Chembiochem : a European journal of chemical biology, 2013)",
  "key": {"RpaR [1]": {"target": "T1, RpaR (Rhodopseudomonas palustris, UniProt Q6NCZ5)", "T1 sequence (Q6NCZ5 whole entry)": "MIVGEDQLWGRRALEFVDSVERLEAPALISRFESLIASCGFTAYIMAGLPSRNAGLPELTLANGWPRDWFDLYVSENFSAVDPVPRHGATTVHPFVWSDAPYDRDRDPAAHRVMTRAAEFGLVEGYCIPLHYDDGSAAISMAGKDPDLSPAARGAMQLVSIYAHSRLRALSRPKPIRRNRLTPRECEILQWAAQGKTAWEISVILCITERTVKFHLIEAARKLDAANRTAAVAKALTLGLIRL", "test": "RpaR agonism reporter gene assay", "assay_type": "cell-based", "conditions": "for EC50: EC50 value, dose response in R. palustris CGA814 reporter; for activation at 1 µM: read-out: Percent activation; for Percent activation: 1 μM synthetic ligand, relative to p-cAHL at 1 μM, triplicate of triplicate, error < ±10%; for Drop in agonistic activity relative to 1: compared with 2-fluoro cinnamoyl HL 1"}, "LuxR": {"test_system": "LuxR", "conditions": "V. fischeri LuxR; ref 7j, 7l; cited from earlier work"}, "RpaR [2]": {"target": "T1, RpaR", "test": "Competitive RpaR antagonism reporter gene assay against p-cAHL", "assay_type": "cell-based", "conditions": "for Percent inhibition: 1 μM synthetic ligand against p-cAHL at its EC50 value (1 nM), negative values indicate agonistic responses, error < ±10%"}, "RpaR [3]": {"target": "T1, RpaR", "conditions": "extracts from wild-type R. palustris grown with the aromatic acid; cited from earlier work"}, "[4]": {"test_system": "other LuxR-type receptors", "conditions": "ref 7j; cited from earlier work"}},
  "note": "Several values for one entry are separate records, joined by “and”; a condition that tells them apart may be missing. Equal entries are not always repeated.",
  "data": [
    {"smiles": "O=C(CCc1ccc(O)cc1)N[C@H]1CCOC1=O", "note": "[Compound 19]", "values": [
      {"measurement": "EC50", "setting": "RpaR [1]", "value": 532, "unit": "nM"},
      {"measurement": "activation at 1 µM", "setting": "RpaR [1]", "value": 72, "unit": "%"},
      {"measurement": "EC50 value higher than p-cAHL", "setting": "RpaR [1]; relative to p-cAHL", "value": 500, "unit": "fold"}
    ]},
    {"smiles": "O=C(/C=C/c1c(F)cccc1F)N[C@H]1CCOC1=O", "note": "[Compound 4, 2,6-difluoro cinnamoyl HL]", "values": [
      {"measurement": "EC50", "setting": "RpaR [1]", "value": 4.8, "unit": "nM"},
      {"measurement": "activation at 1 µM", "setting": "RpaR [1]", "value": 101, "unit": "%"}
    ]},
    {"smiles": "O=C(CCc1ccc([N+](=O)[O-])cc1)N[C@H]1CCOC1=O", "note": "[Compound E37, 4-NO2 PPHL]", "values": [
      {"measurement": "LuxR antagonism", "setting": "LuxR", "value": "strong antagonists"},
      {"measurement": "IC50", "setting": "RpaR [2]", "value": 235, "unit": "nM"},
      {"measurement": "Percent inhibition", "setting": "RpaR [2]", "value": 89, "unit": "%"}
    ]},
    {"smiles": "O=C(/C=C/c1ccc(O)c(O)c1)N[C@H]1CCOC1=O", "note": "[Compound 17, caffeoyl HL]", "values": [
      {"measurement": "Percent activation", "setting": "RpaR [1]", "value": 14, "unit": "%"}
    ]},
    {"smiles": "O=C(COc1cccc([N+](=O)[O-])c1)N[C@H]1CCOC1=O", "note": "[Compound E25, 3-NO2 POHL]", "values": [
      {"measurement": "LuxR antagonism", "setting": "LuxR", "value": "strong antagonists"},
      {"measurement": "IC50", "setting": "RpaR [2]", "value": 238, "unit": "nM"},
      {"measurement": "Percent inhibition", "setting": "RpaR [2]", "value": 63, "unit": "%"}
    ]},
    {"smiles": "O=C(/C=C/c1cccc(F)c1)N[C@H]1CCOC1=O", "note": "[Compound 2]", "values": [
      {"measurement": "EC50", "setting": "RpaR [1]", "value": 65.6, "unit": "nM"},
      {"measurement": "Drop in agonistic activity relative to 1", "setting": "RpaR [1]", "value": 20, "unit": "fold"},
      {"measurement": "activation at 1 µM", "setting": "RpaR [1]", "value": 84, "unit": "%"}
    ]},
    {"smiles": "O=C(/C=C/c1ccc(O)cc1)N[C@H]1CCOC1=O", "note": "[p-cAHL, p-coumaroyl HL, reference compound]", "values": [
      {"measurement": "EC50", "setting": "RpaR [1]", "value": "1 nM and ~1 nM"}
    ]},
    {"smiles": "O=C(/C=C/c1ccccc1Br)N[C@H]1CCOC1=O", "note": "[Compound 10, 2-bromo cinnamoyl HL]", "values": [
      {"measurement": "EC50", "setting": "RpaR [1]", "value": 77.1, "unit": "nM"},
      {"measurement": "Drop in agonistic activity relative to 1", "setting": "RpaR [1]", "value": "~ 20 fold"},
      {"measurement": "activation at 1 µM", "setting": "RpaR [1]", "value": 118, "unit": "%"}
    ]},
    {"smiles": "O=C(/C=C/c1ccccc1)N[C@H]1CCOC1=O", "note": "[Compound B10, cinnamoyl HL]", "values": [
      {"measurement": "EC50", "setting": "RpaR [1]", "value": 32.3, "unit": "nM"},
      {"measurement": "activation at 1 µM", "setting": "RpaR [1]", "value": 65, "unit": "%"}
    ]},
    {"smiles": "COc1cc(C=CC(=O)NC2CCOC2=O)ccc1O", "note": "(stereo not shown) [Compound 18]", "values": [
      {"measurement": "RpaR agonist activity", "setting": "RpaR [3]", "value": "inactive"}
    ]},
    {"smiles": "O=C(/C=C/c1ccccc1O)N[C@H]1CCOC1=O", "note": "[Compound 15, ortho-cAHL]", "values": [
      {"measurement": "EC50", "setting": "RpaR [1]", "value": 1170, "unit": "nM"},
      {"measurement": "activation at 1 µM", "setting": "RpaR [1]", "value": 59, "unit": "%"}
    ]},
    {"smiles": "O=C(COc1ccccc1)N[C@H]1CCOC1=O", "note": "[Compound E14, POHL]", "values": [
      {"measurement": "Activity as agonist or antagonist in other LuxR-type receptors", "setting": "[4]", "value": "largely inactive"}
    ]},
    {"smiles": "O=C(CCC1CCCCC1)N[C@H]1CCOC1=O", "note": "[Compound B11, cyclohexyl HL]", "values": [
      {"measurement": "LuxR antagonism", "setting": "LuxR", "value": "strong antagonists"}
    ]},
    {"smiles": "O=C(/C=C/c1ccccc1F)N[C@H]1CCOC1=O", "note": "[Compound 1, 2-fluoro cinnamoyl HL]", "values": [
      {"measurement": "EC50", "setting": "RpaR [1]", "value": 3.4, "unit": "nM"},
      {"measurement": "activation at 1 µM", "setting": "RpaR [1]", "value": 99, "unit": "%"}
    ]},
    {"smiles": "O=C(/C=C/c1ccc(F)cc1)N[C@H]1CCOC1=O", "note": "[Compound 3, 4-fluoro cinnamoyl HL]", "values": [
      {"measurement": "Agonistic activity at 1 μM", "setting": "RpaR [1]; 1 μM", "value": "inactive"},
      {"measurement": "Percent activation", "setting": "RpaR [1]", "value": 1, "unit": "%"}
    ]},
    {"smiles": "O=C(CCc1ccc2c(c1)OCO2)N[C@H]1CCOC1=O", "note": "[Compound E39, 1,3-benzodioxole PPHL]", "values": [
      {"measurement": "IC50", "setting": "RpaR [2]", "value": 228, "unit": "nM"},
      {"measurement": "Percent inhibition", "setting": "RpaR [2]", "value": 63, "unit": "%"}
    ]},
    {"smiles": "O=C(CCc1ccc(F)cc1)N[C@H]1CCOC1=O", "note": "[Compound E29, 4-F PPHL]", "values": [
      {"measurement": "LuxR antagonism", "setting": "LuxR", "value": "strong antagonists"},
      {"measurement": "IC50", "setting": "RpaR [2]", "value": 300, "unit": "nM"},
      {"measurement": "Percent inhibition", "setting": "RpaR [2]", "value": 70, "unit": "%"}
    ]},
    {"smiles": "O=C(/C=C/c1cccc(O)c1)N[C@H]1CCOC1=O", "note": "[Compound 16, meta-cAHL]", "values": [
      {"measurement": "EC50", "setting": "RpaR [1]", "value": 144, "unit": "nM"},
      {"measurement": "activation at 1 µM", "setting": "RpaR [1]", "value": 94, "unit": "%"}
    ]}
  ]
}
